Reference: ChEMBL document CHEMBL5126607, “Discovery and In Vivo Evaluation of ACT-660602: A Potent and Selective Antagonist of the Chemokine Receptor CXCR3 for Autoimmune Diseases” (J Med Chem, 2022)

Experiments:
[1] = target: T1, C-X-C chemokine receptor type 3 (Homo sapiens, UniProt P49682)
T1 sequence (P49682 whole entry): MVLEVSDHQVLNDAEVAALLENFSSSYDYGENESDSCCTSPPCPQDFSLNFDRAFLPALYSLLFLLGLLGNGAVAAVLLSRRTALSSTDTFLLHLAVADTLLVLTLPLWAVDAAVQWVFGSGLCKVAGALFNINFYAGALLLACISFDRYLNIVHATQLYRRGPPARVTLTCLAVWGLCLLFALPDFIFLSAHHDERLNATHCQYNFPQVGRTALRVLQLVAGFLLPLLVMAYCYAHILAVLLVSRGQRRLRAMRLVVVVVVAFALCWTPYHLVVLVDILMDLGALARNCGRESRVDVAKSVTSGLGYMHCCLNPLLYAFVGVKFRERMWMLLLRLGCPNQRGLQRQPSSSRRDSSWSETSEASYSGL
Description: Antagonist activity at recombinant human CXCR3 expressed in human CHO-K1 cells co-expressing Galpha15 incubated for 10 mins by Fluo-4AM dye based FLIPR assay

[2] = target: T1, C-X-C chemokine receptor type 3; remark: listed apart in the source
Description: Antagonist activity at recombinant human CXCR3 in human U2SO cells assessed as reduction in CXCL10-induced beta-arrestin recruitment by TANGO assay

[3] = target: T1, C-X-C chemokine receptor type 3; remark: listed apart in the source
Description: Inhibition of CXCR3 receptor internalization in human venous whole blood incubated for 30 mins by flow cytometer analysis

[4] = target: Voltage-gated inwardly rectifying potassium channel KCNH2 (Homo sapiens, UniProt Q12809); experiment: Inhibition of hERG expressed in CHO cells by Q patch-clamp method
Voltage-gated inwardly rectifying potassium channel KCNH2, sequence (Q12809 whole entry): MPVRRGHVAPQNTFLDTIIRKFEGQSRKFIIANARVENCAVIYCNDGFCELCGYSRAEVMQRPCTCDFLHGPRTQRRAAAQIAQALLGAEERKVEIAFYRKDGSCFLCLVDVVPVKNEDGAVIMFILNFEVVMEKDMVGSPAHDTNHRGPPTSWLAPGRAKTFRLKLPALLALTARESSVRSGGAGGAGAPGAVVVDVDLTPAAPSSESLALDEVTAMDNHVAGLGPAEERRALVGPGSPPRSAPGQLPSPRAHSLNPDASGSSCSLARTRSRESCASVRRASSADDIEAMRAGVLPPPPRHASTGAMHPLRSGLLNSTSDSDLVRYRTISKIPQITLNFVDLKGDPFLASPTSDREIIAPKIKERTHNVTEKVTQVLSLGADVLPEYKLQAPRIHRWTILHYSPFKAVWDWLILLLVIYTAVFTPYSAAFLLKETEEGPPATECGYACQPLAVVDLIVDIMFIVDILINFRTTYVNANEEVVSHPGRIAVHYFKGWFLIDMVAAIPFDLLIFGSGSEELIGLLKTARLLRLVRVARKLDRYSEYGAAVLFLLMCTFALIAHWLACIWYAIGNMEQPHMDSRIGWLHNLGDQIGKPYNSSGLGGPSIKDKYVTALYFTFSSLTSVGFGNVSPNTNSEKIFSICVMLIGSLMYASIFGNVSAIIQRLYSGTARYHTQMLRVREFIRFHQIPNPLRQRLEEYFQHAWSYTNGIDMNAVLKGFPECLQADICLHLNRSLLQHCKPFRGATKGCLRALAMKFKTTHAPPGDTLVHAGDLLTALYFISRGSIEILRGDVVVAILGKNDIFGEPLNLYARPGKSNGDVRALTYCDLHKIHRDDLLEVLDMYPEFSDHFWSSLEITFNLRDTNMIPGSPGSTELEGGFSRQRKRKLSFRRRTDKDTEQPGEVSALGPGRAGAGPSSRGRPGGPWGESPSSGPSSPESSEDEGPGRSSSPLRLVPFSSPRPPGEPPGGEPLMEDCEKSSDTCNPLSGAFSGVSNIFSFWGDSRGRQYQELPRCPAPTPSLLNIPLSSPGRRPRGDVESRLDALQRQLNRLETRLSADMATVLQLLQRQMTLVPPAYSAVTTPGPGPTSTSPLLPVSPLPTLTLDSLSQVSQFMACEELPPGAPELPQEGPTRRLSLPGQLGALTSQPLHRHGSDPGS

[5] = Lipophilicity, log D of the compound at pH 7.4; conditions: buffer
in vitro = conditions: human, microsomes
hERG = hERG (Homo sapiens, UniProt Q12809); experiment: Inhibition of hERG expressed in CHO cells 10 uM at by Q patch-clamp method relative to control
hERG, sequence (Q12809 whole entry): as above

[6] = human, microsomes, 1 µM
[7] = Fractional unbound plasma concentration in Balb/c mouse at 10 mg/kg, po
in vivo [8] = conditions: Balb/c, mouse, po, 10 mg/kg
in vivo [9] = conditions: Balb/c, mouse, po, 10 mg/kg; remark: listed apart in the source
in vivo [10] = conditions: Balb/c, mouse, po, 10 mg/kg; remark: listed apart in the source

Which results are given for `Cc1nc(C)n(CC(=O)N2CCN(c3sc(C(F)(F)F)nc3-c3cnc(OC4CCC4)nc3)C[C@H]2C)n1`?
IC50 [1]: 0.004 µM; IC50 [2]: 0.078 µM; IC50 [3]: 0.306 µM; IC50 [4]: > 20 µM; logD [5]: 3.6; microsomal CLint at 1 µM (in vitro): 51 µL/min/mg

Which IC50 [1] does the source give for `C[C@@H]1CN(c2sc(CN(C)C)nc2-c2nc3ccccc3[nH]2)CCN1C(=O)Cn1cnc2cccnc21` here?
The IC50 was 0.05 µM.

What about the inhibition at 10 µM (hERG) of the same molecule?
The inhibition at 10 µM was 28%.

And the IC50 [2]?
Its IC50 is 2.36 µM.

And the IC50 [3]?
The IC50 was 1.15 µM.

And the IC50 [4]?
The IC50 was 20 µM.

And the microsomal CLint at 1 µM (in vitro)?
Its microsomal CLint at 1 µM is 44 µL/min/mg.

Which IC50 [1] does the source give for `CCOc1ncc(-c2nc(C(F)(F)F)sc2N2CCN(C(=O)Cn3cnc4cccnc43)[C@H](C)C2)cn1` here?
Its IC50 is 0.002 µM.

And the inhibition at 10 µM (hERG)?
Its inhibition at 10 µM is 44%.

What about the IC50 [2] of the same molecule?
The IC50 was 0.02 µM.

And the IC50 [3]?
The IC50 was 0.048 µM.

What about the CLH [6] of the same molecule?
Its CLH is 4.5 mL/h/kg.

What about the fraction unbound [7] of the same molecule?
Its fraction unbound is 0.008.

What about the IC50 [4] of the same molecule?
Its IC50 is 13 µM.

And the AUC (in vivo [8])?
The AUC was 1590 ng·h/mL.

What about the Cmax (in vivo [9]) of the same molecule?
The Cmax was 1800 ng/mL.

What about the Tmax (in vivo [10]) of the same molecule?
Its Tmax is 30 min.

Which inhibition at 10 µM (hERG) does the source give for `COCCOc1ncc(-c2nc(C(F)(F)F)sc2N2CCN(C(=O)Cn3cnc4cccnc43)[C@H](C)C2)cn1` here?
The inhibition at 10 µM was 17%.

And the IC50 [4]?
The IC50 was greater than 20 µM.

For `C[C@@H]1CN(c2sc(C(F)(F)F)nc2-c2cnc(OCCN(C)C)nc2)CCN1C(=O)Cn1cnc2cccnc21`, which IC50 [1] is on record?
Its IC50 is 0.0067 µM.

And the inhibition at 10 µM (hERG)?
The inhibition at 10 µM was 25%.

And the IC50 [2]?
The IC50 was 0.14 µM.

What about the IC50 [3] of the same molecule?
The IC50 was 0.381 µM.

What about the CLH [6] of the same molecule?
Its CLH is 1.74 mL/h/kg.

What about the IC50 [4] of the same molecule?
The IC50 was greater than 20 µM.

What does the source list for `Cc1nc(-c2nc3ccccc3[nH]2)c(N2CCN(C(=O)Cn3cnc4cccnc43)[C@H](C)C2)s1`?
IC50 [1]: 0.009 µM; IC50 [2]: 1.05 µM; IC50 [3]: 1.06 µM; IC50 [4]: 2.6 µM; microsomal CLint at 1 µM (in vitro): 23 µL/min/mg

Which IC50 [1] does the source give for `CCCc1ncc(-c2nc(C(F)(F)F)sc2N2CCN(C(=O)Cn3nc(C)nc3C)[C@H](C)C2)cn1` here?
Its IC50 is 0.0044 µM.

What about the IC50 [2] of the same molecule?
The IC50 was 0.258 µM.

What about the IC50 [3] of the same molecule?
The IC50 was 0.367 µM.

What about the IC50 [4] of the same molecule?
The IC50 was greater than 20 µM.

What about the microsomal CLint at 1 µM (in vitro) of the same molecule?
The microsomal CLint at 1 µM was 80 µL/min/mg.

With `Cc1ncc(-c2nc(C(F)(F)F)sc2N2CCN(C(=O)Cn3cnc4cccnc43)[C@H](C)C2)cn1` as the molecule, how does the inhibition at 10 µM (hERG) read?
The inhibition at 10 µM was 40%.

What about the IC50 [4] of the same molecule?
The IC50 was 15 µM.

Which IC50 [1] does the source give for `Cc1nc(C)n(CC(=O)N2CCN(c3sc(C(F)(F)F)nc3-c3cnc(C4CC4)nc3)C[C@H]2C)n1` here?
The IC50 was 0.0035 µM.

And the IC50 [2]?
The IC50 was 0.349 µM.

And the IC50 [3]?
The IC50 was 0.674 µM.

And the IC50 [4]?
Its IC50 is 13 µM.

And the microsomal CLint at 1 µM (in vitro)?
The microsomal CLint at 1 µM was less than 10 µL/min/mg.

Which results are given for `COc1ccc(-c2nc(C(F)(F)F)sc2N2CCN(C(=O)Cn3cnc4cccnc43)[C@H](C)C2)cc1`?
inhibition at 10 µM (hERG): 53%; IC50 [4]: 8.8 µM

Which results are given for `CCOc1ncc(-c2nc(C(F)(F)F)sc2N2CCN(C(=O)Cn3ccc(C(F)(F)F)n3)[C@H](C)C2)cn1`?
IC50 [1]: 0.0038 µM; IC50 [2]: 0.093 µM; IC50 [3]: 0.09 µM; IC50 [4]: 5.1 µM; microsomal CLint at 1 µM (in vitro): 20 µL/min/mg

With `Cc1nc(C)n(CC(=O)N2CCN(c3sc(C(F)(F)F)nc3-c3ccc(C(F)(F)F)nc3)C[C@H]2C)n1` as the molecule, how does the IC50 [1] read?
Its IC50 is 0.0042 µM.

And the IC50 [2]?
Its IC50 is 0.608 µM.

And the IC50 [3]?
Its IC50 is 0.86 µM.

And the IC50 [4]?
The IC50 was 5.2 µM.

And the microsomal CLint at 1 µM (in vitro)?
Its microsomal CLint at 1 µM is less than 10 µL/min/mg.

Which inhibition at 10 µM (hERG) does the source give for `CCCc1ncc(-c2nc(C(F)(F)F)sc2N2CCN(C(=O)Cn3cnc4cccnc43)[C@H](C)C2)cn1` here?
Its inhibition at 10 µM is 57%.

What about the IC50 [4] of the same molecule?
Its IC50 is 5.9 µM.

Which results are given for `CCOc1ncc(-c2nc(C(F)(F)F)sc2N2CCN(C(=O)Cn3nc(C)cc3C)[C@H](C)C2)cn1`?
IC50 [1]: 0.0023 µM; IC50 [2]: 0.087 µM; IC50 [3]: 0.06 µM; IC50 [4]: 13 µM; logD [5]: 3.7; microsomal CLint at 1 µM (in vitro): 184 µL/min/mg

For `COc1ncc(-c2nc(C(F)(F)F)sc2N2CCN(C(=O)Cn3cnc4cccnc43)[C@H](C)C2)cn1`, which IC50 [1] is on record?
Its IC50 is 0.0038 µM.

What about the inhibition at 10 µM (hERG) of the same molecule?
The inhibition at 10 µM was 19%.

What about the IC50 [2] of the same molecule?
The IC50 was 0.177 µM.

And the IC50 [3]?
Its IC50 is 0.158 µM.

What about the CLH [6] of the same molecule?
The CLH was 0.84 mL/h/kg.

And the IC50 [4]?
The IC50 was greater than 20 µM.
